The text below walks through data of paper PMC6934184, “Selective DNA-PKcs inhibition extends the therapeutic index of localized radiotherapy and chemotherapy” (The Journal of Clinical Investigation, 2019).

One experiment deals with HAP-1 DNA-PK–null cells. Kind of experiment: clonogenic survival with IR. The experiment is classed as cell-based, human. The settings on record: 5 μM concomitant. Here is the method: (§1) Exponentially growing HAP-1 DNA-PK proficient or deficient cells were seeded into 6-well plates and allowed to re-attach. Cells were then incubated with vehicle (DMSO) or NU5455 (5 µM) 1 hour prior to irradiation and for a further 24 hours post-irradiation. Cells were then washed in PBS and incubated in drug-free medium to allow for colony formation.
(§2) To quantify the number of proliferating versus confluent cells, cells were pulsed with 5-ethynyl-2’-deoxyuridine (EdU), and labeled using the Click-iT Plus EdU Alexa Fluor 647 Flow Cytometry Assay Kit together with FxCycle Violet Stain to label DNA (both Thermo Fisher) following the manufacturer’s instructions. Samples of cells taken from tho se used in the clonogenic assay were used to confirm the percentage of cells in each cell cycle phase.
(§3) Samples were acquired on a Symphony A5 flow cytometer (Becton Dickinson, UK).
(§4) Cell cycle phase status was also confirmed by microscopy, using cells grown on coverslips i n 6-well plates. […] Coverslips were mounted using Prolong Glass with NucBlue (ThermoFisher) and images were acquired on the Leica TCS SP8 confocal fluorescence […]
(§5) Treated cells were fixed with 10% (w/v) trichloroacetic acid (Fisher) at 4°C overnight. Cells were stained with sulphorhodamine B (SRB, 0.4% (w/v) in water), and cell density quantified

The subject of experiment [1] is HAP-1 cells that express 1 copy of PRKDC. Description: clonogenic survival with IR. In kind it is cell-based, human. The settings on record: 5 μM concomitant. How it is done:
as §1, §2, §3, §4, §5

As to `CN(C(=O)CN1CCOCC1)c1ccc2sc3c(-c4cccc5c(=O)cc(N6CC7CCC(C6)O7)oc45)cccc3c2c1` [NU5455], the “response to IR (clonogenic)” value in the experiment with HAP-1 DNA-PK–null cells is reported as “did not alter the response”. Further, the “clonogenic cell-killing effect of 1–4 Gy IR” value in experiment [1] is “markedly increased”.
